Measurements: patent US6472350B1, “Utilization of 3-phenyl-pyrones for pest control” (Bayer Aktiengesellschaft, priority 1998, dated 2002)

Experiments:
Format in all cases: in vivo
[1] = system: peach aphid (Myzus persicae); test: Myzus test; details: active compound concentration 0.1 %, infested cabbage leaves (Brassica oleracea) dipped
Procedure: Myzus Test Solvent: 7 parts by weight of dimethylformamide Emulsifier: 1 part by weight of alkylaryl polyglycol ether To produce a suitable preparation of active compound, 1 part by weight of active compound is mixed with the stated amounts of solvent and emulsifier, and the concentrate is diluted with emulsifier-containing water to the desired concentration. Cabbage leaves (Brassica oleracea) which are heavily infested by the peach aphid (Myzus persicae) are treated by being dipped into the preparation of active compound of the desired concentration. After the desired period of time, the kill in % is determined. 100% means that all aphids have been killed; 0% means that none of the aphids have been killed.

[2] = system: green rice leaf hoppers (Nephotettix cincticeps); test: Nephotettix test; details: active compound concentration 0.1 %, rice seedlings (Oryza sativa) dipped
Procedure: Nephotettix Test Solvent: 7 parts by weight of dimethylformamide Emulsifier: 1 part by weight of alkylaryl polyglycol ether To produce a suitable preparation of active compound, 1 part by weight of active compound is mixed with the stated amounts of solvent and emulsifier, and the concentrate is diluted with emulsifier-containing water to the desired concentration. Rice seedlings (Oryza sativa) are treated by being dipped into the active compound preparation of the desired concentration and are populated with green rice leaf hoppers (Nephotettix cincticeps) while the leaves are still moist. After the desired period of time, the kill in % is determined. 100% means that all leaf hoppers have been killed; 0% means that none of the leaf hoppers have been killed.

[3] = system: larvae of the mustard beetle (Phaedon cochleariae); test: Phaedon larvae test; details: active compound concentration 0.1 %, cabbage leaves (Brassica oleracea) dipped
Procedure: Phaedon Larvae Test Solvent: 7 parts by weight of dimethylformamide Emulsifier: 1 part by weight of alkylaryl polyglycol ether To produce a suitable preparation of active compound, 1 part by weight of active compound is mixed with the stated amounts of solvent and emulsifier, and the concentrate is diluted with emulsifier-containing water to the desired concentration. Cabbage leaves (Brassica oleracea) are treated by being dipped into the preparation of active compound of the desired concentration and are populated with larvae of the mustard beetle (Phaedon cochleariae) while the leaves are still moist. After the desired period of time, the kill in % is determined. 100% means that all beetle larvae have been killed; 0% means that none of the beetle larvae have been killed.

[4] = system: caterpillars of the diamond back moth (Plutella xylostella); test: Plutella test; details: active compound concentration 0.1 %, cabbage leaves (Brassica oleracea) dipped

Cc1cc(F)ccc1-c1c(O)c(C)c(-c2ccccn2)oc1=O [drawing 10]
Kill in % after 6 d [1]: 98%

Cc1cc(Cl)ccc1-c1c(O)c(C)c(-c2ccc(F)cc2)oc1=O [drawing 11]
Kill in % after 6 d [2]: 100%

Cc1cc(F)ccc1-c1c(O)c(C)c(-c2ccccn2)oc1=O [drawing 12]
Kill in % after 7 d [3]: 100%

Cc1cc(Cl)ccc1-c1c(O)c(C)c(-c2ccc(F)cc2)oc1=O [drawing 13]
Kill in % after 7 d [4]: 100%

Cc1cc(F)ccc1-c1c(O)c(C)c(-c2ccccn2)oc1=O [drawing 14]
Kill in % after 7 d [4]: 100%
